# What was measured:
# Assay in all cases: Test F preemergence/postemergence greenhouse plant response rating 0 to 100
# blackgrass = format: in vivo, Alopecurus myosuroides; details: POSTEMERGENCE, 0 to 100 scale; for Blackgrass (1) plant response rating: stage (1) two to three leaves; for Blackgrass (2) plant response rating: stage (2) approximately four leaves or initial tillering
# Text: (§1) Compounds evaluated in this test were formulated in a non-phytoxic solvent and applied to the soil surface before plant seedlings emerged (preemergence application) and to plants that were in the one-to-four leaf stage (postemergence application). A sandy loam soil was used for the preemergence test while a mixture of sandy loam soil and greenhouse potting mix in a 60:40 ratio was used for the postemergence test. Test compounds were applied within approximately one day after planting seeds for the preemergence test. Plantings of these crops and weed species were adjusted to produce plants of appropriate size for the postemergence test. All plant species were grown using normal greenhouse practices. Crop and weed species include winter barley (Hordeum vulgare cv. ‘Igri’), blackgrass (Alopecurus myosuroides), chickweed (Stellaria media), downy brome (Bromus tectorum), field violet (Viola arvensis), galium (Galium aparine), green foxtail (Setaria viridis), kochia (Kochia scoparia), lambsquarters (Chenopodium album), speedwell (Veronica persica), rape (Brassica napus), ryegrass (Lolium multiflorum), sugar beet (Beta vulgaris cv. ‘USl’), sunflower (Helianthus annuus cv. ‘Russian Giant’), spring wheat (Triticum aestivum cv. ‘ERA’), winter wheat (Triticum aestivum cv. ‘Talent’), wild buckwheat (Polygonum convolvulus), wild mustard (Sinapis arvensis), wild oat (Avena fatua), and wild radish (Raphanus raphanistrum). Blackgrass, galium and wild oat were treated at two growth stages. […] Treated plants and untreated controls were maintained in a greenhouse for approximately 21 to 28 days, after which all treated plants were compared to untreated controls and visually evaluated. […] A dash response (-) means no test result.
# downy brome = format: in vivo, Bromus tectorum; details: POSTEMERGENCE, 0 to 100 scale
# Text: as §1
# galium = format: in vivo, Galium aparine; details: POSTEMERGENCE, 0 to 100 scale; for Galium (1) plant response rating: stage (1) two to three leaves; for Galium (2) plant response rating: stage (2) approximately four leaves or initial tillering
# Text: as §1
# green foxtail = format: in vivo, Setaria viridis; details: POSTEMERGENCE, 0 to 100 scale
# Text: as §1
# lambsquarters = format: in vivo, Chenopodium album; details: POSTEMERGENCE, 0 to 100 scale
# Text: as §1
# speedwell = format: in vivo, Veronica persica; details: POSTEMERGENCE, 0 to 100 scale
# Text: as §1
# rape = format: in vivo, Brassica napus; details: POSTEMERGENCE, 0 to 100 scale
# Text: as §1
# ryegrass = format: in vivo, Lolium multiflorum; details: POSTEMERGENCE, 0 to 100 scale
# Text: as §1
# sunflower = format: in vivo, Helianthus annuus cv. ‘Russian Giant’; details: POSTEMERGENCE, 0 to 100 scale
# Text: as §1
# spring wheat = format: in vivo, Triticum aestivum cv. ‘ERA’; details: POSTEMERGENCE, 0 to 100 scale
# Text: as §1
# winter wheat = format: in vivo, Triticum aestivum cv. ‘Talent’; details: POSTEMERGENCE, 0 to 100 scale
# Text: as §1
# wild buckwheat = format: in vivo, Polygonum convolvulus; details: POSTEMERGENCE, 0 to 100 scale
# Text: as §1
# wild radish = format: in vivo, Raphanus raphanistrum; details: POSTEMERGENCE, 0 to 100 scale
# Text: as §1
smiles,measurement,setting,value
C#CC(C)Oc1cc(-c2nn3c(c2Cl)CCCC3)c(F)cc1Cl (centres unmarked) [Compound 36],Blackgrass (1) plant response rating,blackgrass; Rate 4 g/ha,0
same,Blackgrass (2) plant response rating,blackgrass; Rate 4 g/ha,0
same,Blackgrass (1) plant response rating,blackgrass; Rate 8 g/ha,0
same,Blackgrass (2) plant response rating,blackgrass; Rate 8 g/ha,0
same,Blackgrass (1) plant response rating,blackgrass; Rate 16 g/ha,0
same,Blackgrass (2) plant response rating,blackgrass; Rate 16 g/ha,10
same,Blackgrass (1) plant response rating,blackgrass; Rate 32 g/ha,5
same,Blackgrass (2) plant response rating,blackgrass; Rate 32 g/ha,20
same,Downy brome plant response rating,downy brome; Rate 4 g/ha,0
same,Downy brome plant response rating,downy brome; Rate 8 g/ha,0
same,Downy brome plant response rating,downy brome; Rate 16 g/ha,0
same,Downy brome plant response rating,downy brome; Rate 32 g/ha,5
same,Galium (1) plant response rating,galium; Rate 4 g/ha,20
same,Galium (2) plant response rating,galium; Rate 4 g/ha,40
same,Galium (1) plant response rating,galium; Rate 8 g/ha,50
same,Galium (2) plant response rating,galium; Rate 8 g/ha,60
same,Galium (1) plant response rating,galium; Rate 16 g/ha,50
same,Galium (2) plant response rating,galium; Rate 16 g/ha,60
same,Galium (1) plant response rating,galium; Rate 32 g/ha,60
same,Galium (2) plant response rating,galium; Rate 32 g/ha,70
same,Green foxtail plant response rating,green foxtail; Rate 4 g/ha,0
same,Green foxtail plant response rating,green foxtail; Rate 8 g/ha,40
same,Green foxtail plant response rating,green foxtail; Rate 16 g/ha,50
same,Green foxtail plant response rating,green foxtail; Rate 32 g/ha,50
same,Lambsquarters plant response rating,lambsquarters; Rate 4 g/ha,50
same,Lambsquarters plant response rating,lambsquarters; Rate 8 g/ha,50
same,Lambsquarters plant response rating,lambsquarters; Rate 16 g/ha,60
same,Lambsquarters plant response rating,lambsquarters; Rate 32 g/ha,60
same,Persn Speedwell plant response rating,speedwell; Rate 4 g/ha,100
same,Persn Speedwell plant response rating,speedwell; Rate 8 g/ha,100
same,Persn Speedwell plant response rating,speedwell; Rate 16 g/ha,100
same,Persn Speedwell plant response rating,speedwell; Rate 32 g/ha,100
same,Rape plant response rating,rape; Rate 8 g/ha,40
same,Rape plant response rating,rape; Rate 16 g/ha,100
same,Rape plant response rating,rape; Rate 32 g/ha,100
same,Ryegrass plant response rating,ryegrass; Rate 4 g/ha,0
same,Ryegrass plant response rating,ryegrass; Rate 8 g/ha,10
same,Ryegrass plant response rating,ryegrass; Rate 16 g/ha,20
same,Ryegrass plant response rating,ryegrass; Rate 32 g/ha,35
same,Sunflower plant response rating,sunflower; Rate 4 g/ha,0
same,Sunflower plant response rating,sunflower; Rate 8 g/ha,40
same,Sunflower plant response rating,sunflower; Rate 16 g/ha,50
same,Sunflower plant response rating,sunflower; Rate 32 g/ha,60
same,Wheat (Spring) plant response rating,spring wheat; Rate 4 g/ha,15
same,Wheat (Spring) plant response rating,spring wheat; Rate 8 g/ha,15
same,Wheat (Spring) plant response rating,spring wheat; Rate 16 g/ha,15
same,Wheat (Spring) plant response rating,spring wheat; Rate 32 g/ha,20
same,Wheat (Winter) plant response rating,winter wheat; Rate 4 g/ha,20
same,Wheat (Winter) plant response rating,winter wheat; Rate 8 g/ha,20
same,Wheat (Winter) plant response rating,winter wheat; Rate 16 g/ha,20
same,Wheat (Winter) plant response rating,winter wheat; Rate 32 g/ha,50
same,Wild buckwheat plant response rating,wild buckwheat; Rate 16 g/ha,100
same,Wild buckwheat plant response rating,wild buckwheat; Rate 32 g/ha,100
same,Wild radish plant response rating,wild radish; Rate 4 g/ha,100
same,Wild radish plant response rating,wild radish; Rate 8 g/ha,100
same,Wild radish plant response rating,wild radish; Rate 16 g/ha,100
same,Wild radish plant response rating,wild radish; Rate 32 g/ha,100
CCOC(=O)COc1cc(-c2nn3c(c2Cl)CCCC3)c(F)cc1Cl [Compound 42],Blackgrass (1) plant response rating,blackgrass; Rate 2 g/ha,0
same,Blackgrass (2) plant response rating,blackgrass; Rate 2 g/ha,0
same,Blackgrass (1) plant response rating,blackgrass; Rate 4 g/ha,0
same,Blackgrass (2) plant response rating,blackgrass; Rate 4 g/ha,0
same,Blackgrass (1) plant response rating,blackgrass; Rate 8 g/ha,0
same,Blackgrass (2) plant response rating,blackgrass; Rate 8 g/ha,0
same,Blackgrass (1) plant response rating,blackgrass; Rate 16 g/ha,0
same,Blackgrass (2) plant response rating,blackgrass; Rate 16 g/ha,0
same,Blackgrass (1) plant response rating,blackgrass; Rate 32 g/ha,0
same,Blackgrass (2) plant response rating,blackgrass; Rate 32 g/ha,0
same,Downy brome plant response rating,downy brome; Rate 2 g/ha,0
same,Downy brome plant response rating,downy brome; Rate 4 g/ha,0
same,Downy brome plant response rating,downy brome; Rate 8 g/ha,0
same,Downy brome plant response rating,downy brome; Rate 16 g/ha,0
same,Downy brome plant response rating,downy brome; Rate 32 g/ha,0
same,Galium (1) plant response rating,galium; Rate 2 g/ha,0
same,Galium (2) plant response rating,galium; Rate 2 g/ha,0
same,Galium (1) plant response rating,galium; Rate 4 g/ha,0
same,Galium (2) plant response rating,galium; Rate 4 g/ha,0
same,Galium (1) plant response rating,galium; Rate 8 g/ha,40
same,Galium (2) plant response rating,galium; Rate 8 g/ha,30
same,Galium (1) plant response rating,galium; Rate 16 g/ha,40
same,Galium (2) plant response rating,galium; Rate 16 g/ha,60
same,Galium (1) plant response rating,galium; Rate 32 g/ha,60
same,Galium (2) plant response rating,galium; Rate 32 g/ha,60
same,Green foxtail plant response rating,green foxtail; Rate 2 g/ha,0
same,Green foxtail plant response rating,green foxtail; Rate 4 g/ha,0
same,Green foxtail plant response rating,green foxtail; Rate 8 g/ha,0
same,Green foxtail plant response rating,green foxtail; Rate 16 g/ha,10
same,Green foxtail plant response rating,green foxtail; Rate 32 g/ha,60
same,Lambsquarters plant response rating,lambsquarters; Rate 2 g/ha,55
same,Lambsquarters plant response rating,lambsquarters; Rate 4 g/ha,60
same,Lambsquarters plant response rating,lambsquarters; Rate 8 g/ha,60
same,Lambsquarters plant response rating,lambsquarters; Rate 16 g/ha,100
same,Lambsquarters plant response rating,lambsquarters; Rate 32 g/ha,100
same,Persn Speedwell plant response rating,speedwell; Rate 2 g/ha,100
same,Persn Speedwell plant response rating,speedwell; Rate 4 g/ha,100
same,Persn Speedwell plant response rating,speedwell; Rate 8 g/ha,100
same,Persn Speedwell plant response rating,speedwell; Rate 16 g/ha,100
same,Persn Speedwell plant response rating,speedwell; Rate 32 g/ha,100
same,Rape plant response rating,rape; Rate 2 g/ha,0
same,Rape plant response rating,rape; Rate 4 g/ha,20
same,Rape plant response rating,rape; Rate 8 g/ha,40
same,Rape plant response rating,rape; Rate 16 g/ha,70
same,Rape plant response rating,rape; Rate 32 g/ha,100
same,Ryegrass plant response rating,ryegrass; Rate 2 g/ha,0
same,Ryegrass plant response rating,ryegrass; Rate 4 g/ha,0
same,Ryegrass plant response rating,ryegrass; Rate 8 g/ha,0
same,Ryegrass plant response rating,ryegrass; Rate 16 g/ha,0
same,Ryegrass plant response rating,ryegrass; Rate 32 g/ha,30
same,Sunflower plant response rating,sunflower; Rate 2 g/ha,0
same,Sunflower plant response rating,sunflower; Rate 4 g/ha,20
same,Sunflower plant response rating,sunflower; Rate 8 g/ha,30
same,Sunflower plant response rating,sunflower; Rate 16 g/ha,60
same,Sunflower plant response rating,sunflower; Rate 32 g/ha,100
same,Wheat (Spring) plant response rating,spring wheat; Rate 2 g/ha,0
same,Wheat (Spring) plant response rating,spring wheat; Rate 4 g/ha,0
same,Wheat (Spring) plant response rating,spring wheat; Rate 8 g/ha,0
same,Wheat (Spring) plant response rating,spring wheat; Rate 16 g/ha,10
same,Wheat (Spring) plant response rating,spring wheat; Rate 32 g/ha,10
same,Wheat (Winter) plant response rating,winter wheat; Rate 2 g/ha,0
same,Wheat (Winter) plant response rating,winter wheat; Rate 4 g/ha,0
same,Wheat (Winter) plant response rating,winter wheat; Rate 8 g/ha,10
same,Wheat (Winter) plant response rating,winter wheat; Rate 16 g/ha,10
same,Wheat (Winter) plant response rating,winter wheat; Rate 32 g/ha,10
same,Wild buckwheat plant response rating,wild buckwheat; Rate 2 g/ha,60
same,Wild buckwheat plant response rating,wild buckwheat; Rate 4 g/ha,60
same,Wild buckwheat plant response rating,wild buckwheat; Rate 8 g/ha,100
same,Wild buckwheat plant response rating,wild buckwheat; Rate 16 g/ha,100
same,Wild radish plant response rating,wild radish; Rate 2 g/ha,0
same,Wild radish plant response rating,wild radish; Rate 4 g/ha,0
same,Wild radish plant response rating,wild radish; Rate 8 g/ha,10
same,Wild radish plant response rating,wild radish; Rate 16 g/ha,20
same,Wild radish plant response rating,wild radish; Rate 32 g/ha,20

# From patent US6358885B1, “Substituted phenylheterocyclic herbicides” (Mississippi State University, priority 1992, dated 2002)
